Assay [1] addresses T1, Prostaglandin G/H synthase 2 (Mus musculus, UniProt Q05769).
T1 sequence (Q05769 whole entry): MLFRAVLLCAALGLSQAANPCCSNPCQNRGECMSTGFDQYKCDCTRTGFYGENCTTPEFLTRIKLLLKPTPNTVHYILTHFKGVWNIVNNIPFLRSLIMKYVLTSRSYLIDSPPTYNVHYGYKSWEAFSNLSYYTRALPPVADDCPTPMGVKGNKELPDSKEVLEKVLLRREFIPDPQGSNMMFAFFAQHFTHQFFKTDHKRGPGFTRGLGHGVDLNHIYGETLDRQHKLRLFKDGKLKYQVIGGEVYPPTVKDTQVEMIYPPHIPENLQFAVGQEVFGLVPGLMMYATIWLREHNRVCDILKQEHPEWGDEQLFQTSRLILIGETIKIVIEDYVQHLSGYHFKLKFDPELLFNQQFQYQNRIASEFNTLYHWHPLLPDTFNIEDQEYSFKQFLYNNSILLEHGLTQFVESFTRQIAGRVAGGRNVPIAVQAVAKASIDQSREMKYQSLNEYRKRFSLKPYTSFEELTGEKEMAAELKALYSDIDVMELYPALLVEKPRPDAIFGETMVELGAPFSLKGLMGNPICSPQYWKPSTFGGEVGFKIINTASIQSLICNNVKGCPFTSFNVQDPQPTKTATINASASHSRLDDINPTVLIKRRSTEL
The assay is described as follows: Inhibition of COX2 in mouse peritoneal macrophages.

For assay [2], the system named is Rattus norvegicus. The assay is described as follows: Antiinflammatory activity in rat assessed as inhibition of carrageenan induced paw edema at 10 mg/kg after 4 hrs relative to control. The format is functional. In general terms: In the carrageenan paw model, swelling and tenderness develop within hours.
The species entered for another assay is Mus musculus. The experiment in a line: Selectivity index, ratio of IC50 for COX1 to IC50 for COX2 in mouse peritoneal macrophages.
In assay [3] the target is T2, Prostaglandin G/H synthase 1 (Mus musculus, UniProt P22437).
T2 sequence (P22437 whole entry): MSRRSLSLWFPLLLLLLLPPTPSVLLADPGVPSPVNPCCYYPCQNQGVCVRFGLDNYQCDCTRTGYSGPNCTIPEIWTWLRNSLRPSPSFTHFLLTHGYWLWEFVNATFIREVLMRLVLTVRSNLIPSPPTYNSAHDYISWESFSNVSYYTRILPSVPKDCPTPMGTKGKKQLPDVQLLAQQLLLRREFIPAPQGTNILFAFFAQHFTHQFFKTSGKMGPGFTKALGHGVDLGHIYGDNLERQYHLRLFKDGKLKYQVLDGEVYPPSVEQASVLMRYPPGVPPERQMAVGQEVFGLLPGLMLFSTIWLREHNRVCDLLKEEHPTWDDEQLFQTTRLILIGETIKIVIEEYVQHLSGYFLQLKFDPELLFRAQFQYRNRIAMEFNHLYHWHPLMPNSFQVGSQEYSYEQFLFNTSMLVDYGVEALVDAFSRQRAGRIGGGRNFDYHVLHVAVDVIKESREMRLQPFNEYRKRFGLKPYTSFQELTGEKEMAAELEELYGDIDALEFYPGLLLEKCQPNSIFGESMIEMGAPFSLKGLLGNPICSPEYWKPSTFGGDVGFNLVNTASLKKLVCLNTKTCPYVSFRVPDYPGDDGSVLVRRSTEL
The assay is described as follows: Inhibition of COX1 in mouse peritoneal macrophages.

The test system of assay [4] is Rattus norvegicus. The experiment in a line: Antiinflammatory activity in rat assessed as inhibition of carrageenan induced paw edema at 10 mg/kg after 3 hrs relative to control. The format is functional.
For assay [5], the system named is Rattus norvegicus. The assay is described as follows: Antiinflammatory activity in rat assessed as inhibition of carrageenan induced paw edema at 10 mg/kg after 1 hr relative to control. The format is functional.
The subject of assay [6] is Rattus norvegicus. The assay is described as follows: Antiinflammatory activity in rat assessed as inhibition of carrageenan induced paw edema at 10 mg/kg after 2 hrs relative to control. The assay is classed as functional.
For assay [7], the target named is Prostaglandin G/H synthase 1 (Mus musculus, UniProt P22437). The assay is described as follows: Inhibition of calcimycin-induced COX1 activity.

Regarding `CCCN1CC(c2ccc(S(C)(=O)=O)cc2)=C(c2ccc(C)cc2)C1=O` [IMRECOXIB], the values for the half-maximal inhibitory concentration (IC50) in assay [1] and in assay [3] were 0.018 µM and 0.115 µM, respectively. Further, the inhibition in vivo (in general, the relative decrease from the control value, in per cent) at 10 mg/kg came to 50.4% with Rattus norvegicus [2], 50.4% with Rattus norvegicus [4], 31.3% in the assay on Rattus norvegicus [5] and 39.5% in the assay on Rattus norvegicus [6]. For the same compound, in the assay listed under Mus musculus, the Ratio IC50 came to 6.4.
As to `Cc1ccc(-c2cc(C(F)(F)F)nn2-c2ccc(S(N)(=O)=O)cc2)cc1` [CELECOXIB], the inhibition in vivo at 10 mg/kg in the assay with Rattus norvegicus [2] came out at 49.3%; in the assay on Rattus norvegicus [4], 44.7%; in the assay on Rattus norvegicus [5], 23.5%; in the assay on Rattus norvegicus [6], 36.6%.
As for `CCCN1CC(c2ccc(S(C)(=O)=O)cc2)=C(c2ccc(C(=O)O)cc2)C1=O`, the IC50 (as a rule, the concentration that gives 50% inhibition) in assay [1] stood at 0.41 µM; in assay [7], 2.78 µM. The inhibition in vivo at 10 mg/kg is 65.9% in the assay on Rattus norvegicus [2], 55.5% in the assay with Rattus norvegicus [4], 45.4% in the assay on Rattus norvegicus [5] and 51.9% with Rattus norvegicus [6]. In addition, in the assay listed under Mus musculus, the Ratio IC50 was found to be 6.8.
On to `CCCN1CC(c2ccc(S(C)(=O)=O)cc2)=C(c2ccc(CO)cc2)C1=O`, for which the IC50 in assay [1] was 0.014 µM; in assay [3], 0.087 µM. Besides, the inhibition in vivo at 10 mg/kg was determined as 63.9% in the assay with Rattus norvegicus [2], 56.1% in the assay with Rattus norvegicus [4], 26.5% in the assay with Rattus norvegicus [5] and 46% with Rattus norvegicus [6]. In addition, the Ratio IC50 in the assay listed under Mus musculus came to 6.2.
